Converted amounts (≈) assume the structure as drawn. “And” between values parts separate entries of the source, which are not always exact repeats. Equal entries are not always repeated.
Legend:
[1] = system: CEA - bearing LS174T tumor cells; test: In vitro cytotoxicity determination (3H-leucine uptake); format: cell-based
Description: Target cells (antigen positive or antigen negative) are resuspended in 75% leucine deficient EBSS-MEM (GIBCO, Grand Island, NY) + 10% dialyzed fetal bovine serum (FBS) + gentamicin (GIBCO) at 200,000 cells/ml. Aliquots of this cell suspension, 0.2 ml, are seeded into 96 well plates and incubated overnight at 37°C, 5% CO₂. To the supernatants is added the antibody-enzyme conjugate to a final concentration of 25 µg/ml (unconjugated enzyme, unconjugated antibody, no treatment). The supernatants are removed after 1 hr incubation, and the cells rinsed once with media. The media is then replaced with the same media, but containing a Substrate-Cytotoxic Agent at concentrations between 0.001 and 10 µg/ml. The cells are incubated with the Substrate-Cytotoxic Agent compound for a period of time ranging from 3 to 48 h at 37°C, 5% CO₂. Media containing 4 µCi of ³H-leucine are added per well. The cells are incubated 24 hr with the labeled leucine, then harvested. Uptake of labeled leucine is determined by liquid scintillation counting. (All Samples are run in triplicate.) Results are reported as the Substrate-Cytotoxic Agent concentration at which leucine incorporation is reduced to 50% of the control value (ID₅₀).
The rest of the experiment was carried using the above standard procedure.

[2] = target: P-99 E. cloacae beta-lactamase Enzyme (Enterobacter cloacae, UniProt P05364); test: Release of substituents from the 3'-methylene group of cephalosporins on treatment with beta-lactamase; format: biochemical
Chain of P-99 E. cloacae beta-lactamase Enzyme (P05364 21-381): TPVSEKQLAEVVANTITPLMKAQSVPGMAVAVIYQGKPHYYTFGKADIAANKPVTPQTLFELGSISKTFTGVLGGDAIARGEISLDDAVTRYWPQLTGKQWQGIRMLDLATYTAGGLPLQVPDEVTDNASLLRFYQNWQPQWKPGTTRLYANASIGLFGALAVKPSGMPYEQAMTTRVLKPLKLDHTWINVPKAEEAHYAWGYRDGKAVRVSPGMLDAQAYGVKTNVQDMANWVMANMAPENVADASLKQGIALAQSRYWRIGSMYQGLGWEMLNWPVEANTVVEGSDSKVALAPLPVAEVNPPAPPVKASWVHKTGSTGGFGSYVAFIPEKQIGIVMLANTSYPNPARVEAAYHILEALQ
Description: (If the detection method is not instantaneous, the enzyme can be stopped at the desired time by addition of an inhibitor such as cloxacillin (Sigma, St. Louis, Mo.) at its effective concentration: 5 µM for cloxacillin.)
For instance, a model system for the present method employs the expulsion of aminoethanethiol from 7-β-(2-(thien-2-yl)acetamido)-3-((2-aminoethyl-1-sulfide)methylene)-3-cephem-4-carboxylic acid. A typical enzyme assay was performed (following the 264 nm absorbance), but in 50 mM Tris, 100 mM NaCl buffer, pH 8.0. […] Using molar extinction coefficients of 8,540 for the 264 nm absorbance, and 13,600 for the 412 nm absorbance, the rates of the two reactions can be compared (reaction of thiol with DTNB is instantaneous under these conditions).
A stock solution of P-99 E. cloacae beta-lactamase Enzyme was prepared. To the stock solution of the cephalosporin Substrate (90 µl) was added stock beta-lactamase solution (10 µl). The reaction was monitored by HPLC (on a Waters Associates C₁₈ µ Bondapak column) eluted with 25% acetonitrile/ 1% acetic acid in water (monitered at 254 nm absorbance). The retention time for 5-fluorouracil was 1.9 minutes and was 5.3 minutes for the cephalosporin - (5-fluorouracil) compound. Approximately 30 seconds after mixing, a 5 µl aliqout of the reaction mixture was injected into the HPLC. […] Thirty-six minutes after mixing the stock solutions the amount of compound eluting at […] was further diminished, and the amount of compound eluting at 1.9 minutes was correspondingly larger by intergration of the peak areas.

male Fischer 344 rats = test: Rat hematology protocol (white blood cell determination); format: in vivo; conditions: for WBC's, Day 0, Mean: group mean of 5 rats; for WBC's, Day 0, Mean / WBC's, Day 0: pre-bleed before i.v. injection of 1 mg/kg; for WBC's, Day 3, Mean / WBC's, Day 7, Mean: group mean; for WBC's, Day 7, Mean / WBC's, Day 7: day 7 after 1 mg/kg i.v.; for WBC's, Day 3 / WBC's, Day 7 / WBC's, Day 0: individual rat; for WBC's, Day 0: 1 mg/kg
Description: The purpose of the following procedure was to compare the toxicity of the Substrate-Cytotoxic Agent to the toxicity of Cytotoxic Agent alone. • 1. Day 0: 25 male Fischer 344 rats (∼100g) are pre-bled (eyebleed) and injected i.v. as follows: • Group A: 5 rats + vehicle control: 0.5 ml 10 mM HEPES, 150 NaCl, pH 7.1 buffer containing 10% ethanol. • Group B: 5 rats + 1 mg/kg 4 desacetylvinblastine-3-carboxhydrazide (DAVLBHYD). Dissolve 1 mg DAVLBHYD in 0.5 ml absolute ethanol and add 4.5 ml HEPES-NaCl buffer. Inject each rat with 0.5 ml. • Group C: 5 rats + 1 mg/kg ("LY262758") (7-β-2-(phenoxyacetamido)-3-(((desacetylvinblastine)aminocarboxy)methylene)-3-cephem-1-β-sulfoxide-4-carboxybiacid, trifluoroacetic acid salt) (vinca content), (58% vinca). Dissolve 2 mg as above and inject 0.5 ml. • Group D: 5 rats + 1mg/kg ("LY266494"), (7-β-(2-(thien-2-yl)acetamido-3-(((desacetylvinblastinehydrazido)carbonyloxy)methylene)-3-cephem-4-carboxylic acid, hydrochloride salt (55.8% vinca). Dissolve 2 mg and inject 0.5 ml. • Group E: 5 rats + 1 mg/kg ("LY266070") 7-β-(2-(thien-2-yl)acetamido-3-(((desacetylvinblastinehydrazido)carbonyloxy)methylene)-3-cephem-1-β-sulfoxide-4-carboxylic acid, trifluoroacetic acid salt. Dissovle 2 mg and inject 0.5 ml. All animals were indentifed by ear punch and were bled on days 3 and 7 post treatment for white blood cell (WBC) determination. The raw data are on the following page. […] The WBC values of the groups were indistinguishable at day 7 (and lower than the pre-bleed which may have been due to using a different instrument for the WBC determination).

white blood cell (WBC) = test: as above; format: in vivo, male Fischer 344 rats; conditions: day 3 post treatment, 1 mg/kg i.v., compared to all other groups
Description: The purpose of the following procedure was to compare the toxicity of the Substrate-Cytotoxic Agent to the toxicity of Cytotoxic Agent alone. • 1. Day 0: 25 male Fischer 344 rats (∼100g) are pre-bled (eyebleed) and injected i.v. as follows: • Group A: 5 rats + vehicle control: 0.5 ml 10 mM HEPES, 150 NaCl, pH 7.1 buffer containing 10% ethanol. • Group B: 5 rats + 1 mg/kg 4 desacetylvinblastine-3-carboxhydrazide (DAVLBHYD). Dissolve 1 mg DAVLBHYD in 0.5 ml absolute ethanol and add 4.5 ml HEPES-NaCl buffer. Inject each rat with 0.5 ml. • Group C: 5 rats + 1 mg/kg ("LY262758") (7-β-2-(phenoxyacetamido)-3-(((desacetylvinblastine)aminocarboxy)methylene)-3-cephem-1-β-sulfoxide-4-carboxybiacid, trifluoroacetic acid salt) (vinca content), (58% vinca). Dissolve 2 mg as above and inject 0.5 ml. • Group D: 5 rats + 1mg/kg ("LY266494"), (7-β-(2-(thien-2-yl)acetamido-3-(((desacetylvinblastinehydrazido)carbonyloxy)methylene)-3-cephem-4-carboxylic acid, hydrochloride salt (55.8% vinca). Dissolve 2 mg and inject 0.5 ml. • Group E: 5 rats + 1 mg/kg ("LY266070") 7-β-(2-(thien-2-yl)acetamido-3-(((desacetylvinblastinehydrazido)carbonyloxy)methylene)-3-cephem-1-β-sulfoxide-4-carboxylic acid, trifluoroacetic acid salt. Dissovle 2 mg and inject 0.5 ml. All animals were indentifed by ear punch and were bled on days 3 and 7 post treatment for white blood cell (WBC) determination. […]

[3] = substance alone, no conjugate, treatment time 6 Hours
[4] = substance alone, no conjugate, treatment time 48 Hours
[5] = day 3 after 1 mg/kg i.v., trifluoroacetic acid salt

Molecule: 7-β-(2-(thien-2-yl)acetamido)-3-((((1-(desacetylvinblastine)amino)-2-ethylsulfide)methylene)-3-cephem-4-carboxylic acid [COMPOUND] [listing 1 of 2 here]
- ID50 ([1]; cells first treated with B-L-CEM231 conjugate 25 µg/ml for 1 hour, COMPOUND treatment time 6 Hours): 0.265 µg/mL
- ID50 ([1]; cells first treated with B-L-CEM231 conjugate 25 µg/ml for 1 hour, COMPOUND treatment time 48 Hours): <0.001 µg/mL
- ID50 [1, 3]: .154 µg/mL
- ID50 [1, 4]: <0.001 µg/mL

Molecule: NCCSCC1=C(C(=O)O)N2C(=O)[C@@H](NC(=O)Cc3cccs3)[C@H]2SC1 [7-β-(2-(thien-2-yl)acetamido)-3-((2-aminoethyl-1-sulfide)methylene)-3-cephem-4-carboxylic acid, reference compound]
- release of thiol ([2]; 50 mM Tris, 100 mM NaCl, pH 8.0, DTNB, absorbance at 412 nm vs 264 nm): thiol is released as a result of beta-lactamase catalyzed cleavage of the cephalosporin, but that the release rate is slower than the catalytic rate

Molecule: CC[C@]1(O)C[C@@H]2CN(CCc3c([nH]c4ccccc34)[C@@](C(=O)OC)(c3cc4c(cc3OC)N(C)[C@H]3[C@@](O)(C(=O)NN)[C@H](O)[C@]5(CC)C=CCN6CC[C@]43[C@@H]65)C2)C1 [DAVLB-Hyd, 4 desacetylvinblastine-3-carboxhydrazide, reference compound]
- WBC suppression (male Fischer 344 rats; day 3 after 1 mg/kg i.v., compared to all other groups): significant WBC suppression
- WBC's, Day 0, Mean (male Fischer 344 rats): 13.8 x 1000
- WBC's, Day 3, Mean (male Fischer 344 rats; day 3 after 1 mg/kg i.v.): 7.4 x 1000
- WBC's, Day 7, Mean (male Fischer 344 rats): 9.2 x 1000
- WBC's, Day 3 (male Fischer 344 rats; day 3 after 1 mg/kg i.v.): 4.4 x 1000 and 9.0 x 1000 and 5.4 x 1000 and 10.6 x 1000
- WBC's, Day 7 (male Fischer 344 rats): 5.0 x 1000 and 2.8 x 1000 and 19.8 x 1000
- WBC's, Day 0 (male Fischer 344 rats): 17.4 x 1000 and 10.9 x 1000 and 10.2 x 1000 and 12.7 x 1000 and 17.6 x 1000

Molecule: 7-β-2-(phenoxyacetamido)-3-(((desacetylvinblastine)aminocarboxy)methylene)-3-cephem-1-β-sulfoxide-4-carboxybiacid, trifluoroacetic acid salt [LY262758]
- WBC's, Day 0, Mean (male Fischer 344 rats): 13.4 x 1000
- WBC's, Day 3, Mean (male Fischer 344 rats; day 3 after 1 mg/kg i.v.): 14.8 x 1000
- WBC's, Day 7, Mean (male Fischer 344 rats): 11.2 x 1000
- WBC's, Day 3 (male Fischer 344 rats; [5]): 13.3 x 1000 and 14.6 x 1000 and 15.0 x 1000 and 16.3 x 1000 and 14.7 x 1000
- WBC's, Day 7 (male Fischer 344 rats; trifluoroacetic acid salt): 14.0 x 1000 and 13.0 x 1000 and 12.5 x 1000 and 9.0 x 1000 and 7.7 x 1000
- WBC's, Day 0 (male Fischer 344 rats; trifluoroacetic acid salt): 13.3 x 1000 and 14.3 x 1000 and 9.4 x 1000 and 10.2 x 1000 and 19.7 x 1000

Molecule: CCC1(O)CC2CN(CCc3c([nH]c4ccccc34)C(C(=O)OC)(c3cc4c(cc3OC)N(C)C3C(O)(C(=O)NCCS)C(O)C5(CC)C=CCN6CCC43C65)C2)C1 (stereo not shown) [Desacetylvinblastine aminoethanethiol, reference compound]
- ID50 [1, 3]: 0.26 µg/mL (≈ 0.319 µM)
- ID50 [1, 4]: <0.001 µg/mL

Molecule: CC[C@]1(O)C[C@@H]2CN(CCc3c([nH]c4ccccc34)[C@@](C(=O)OC)(c3cc4c(cc3OC)N(C)[C@H]3[C@@](O)(C(=O)NN)[C@H](O)[C@]5(CC)C=CCN6CC[C@]43[C@@H]65)C2)C1 [DAVLBHYD, 4 desacetylvinblastine-3-carboxhydrazide]
- white blood cell (WBC) determination (white blood cell (WBC)): significant WBC suppression

Molecule: CC[C@]1(O)C[C@H]2CN(CCc3c([nH]c4ccccc34)[C@@](C(=O)OC)(c3cc4c(cc3OC)N(C)[C@H]3[C@@](O)(C(=O)NNC(=O)OCC5=C(C(=O)O)N6C(=O)[C@@H](NC(=O)Cc7cccs7)[C@H]6[S+]([O-])C5)[C@H](O)[C@]5(CC)C=CCN6CC[C@]43[C@@H]65)C2)C1.O=C(O)C(F)(F)F (stereo partly shown) [LY266070]
- WBC's, Day 0, Mean (male Fischer 344 rats): 13.0 x 1000
- WBC's, Day 3, Mean (male Fischer 344 rats; day 3 after 1 mg/kg i.v.): 13.9 x 1000
- WBC's, Day 7, Mean (male Fischer 344 rats): 9.6 x 1000
- WBC's, Day 3 (male Fischer 344 rats; [5]): 15.9 x 1000 and 12.8 x 1000 and 15.1 x 1000 and 14.5 x 1000 and 11.3 x 1000
- WBC's, Day 7 (male Fischer 344 rats; trifluoroacetic acid salt): 7.0 x 1000 and 14.5 x 1000 and 9.6 x 1000 (2×) and 7.1 x 1000
- WBC's, Day 0 (male Fischer 344 rats; trifluoroacetic acid salt): 14.1 x 1000 and 15.0 x 1000 and 9.9 x 1000 (2×) and 16.2 x 1000

Molecule: CCC1(O)CC2CN(CCc3c([nH]c4ccccc34)C(C(=O)OC)(c3cc4c(cc3OC)N(C)C3C(O)(C(=O)NNC(=O)OCC5=C(C(=O)O)N6C(=O)C(NC(=O)Cc7cccs7)C6SC5)C(O)C5(CC)C=CCN6CCC43C65)C2)C1.Cl (stereo not shown) [LY266494]
- WBC's, Day 0, Mean (male Fischer 344 rats): 15.6 x 1000
- WBC's, Day 3, Mean (male Fischer 344 rats; day 3 after 1 mg/kg i.v.): 15.0 x 1000
- WBC's, Day 7, Mean (male Fischer 344 rats): 12.0 x 1000
- WBC's, Day 3 (male Fischer 344 rats; day 3 after 1 mg/kg i.v., hydrochloride salt): 19.2 x 1000 and 16.2 x 1000 and 14.3 x 1000 and 13.3 x 1000 and 12.1 x 1000
- WBC's, Day 7 (male Fischer 344 rats; hydrochloride salt): 8.3 x 1000 and 6.8 x 1000 and 11.4 x 1000 and 13.2 x 1000 and 20.1 x 1000
- WBC's, Day 0 (male Fischer 344 rats; hydrochloride salt): 15.6 x 1000 and 16.5 x 1000 and 14.3 x 1000 and 16.0 x 1000

Molecule: 7-β-(2-(thien-2-yl)acetamido)-3-((((1-(desacetylvinblastine)amino)-2-ethylsulfide)methylene)-3-cephem-4-carboxylic acid [COMPOUND] [listing 2 of 2 here]
- toxicity to the tumor cells ([1]; LS174T cells first treated with B-L-CEM231 conjugate at 25 µg/ml for 1 hour): dramatically increased
- toxicity to the tumor cells ([1]; LS174T cells untreated with conjugate, compared with the Cytotoxic Agent from which it is derived): much less toxic to the tumor cells than the Cytotoxic Agent from which it is derived

Molecule: O=C(Cc1cccs1)N[C@@H]1C(=O)N2C(C(=O)O)=C(Cn3cc(F)c(=O)[nH]c3=O)CS[C@H]12 [ceph-5-FU, 7-β-(2-(thien-2-yl)acetamido)-3-((N-1(5-fluorouracil)-yl)methylene)-3-cephem-4-carboxylic acid]
- expulsion of 5-fluorouracil (HPLC trace) ([2]; approximately 30 seconds after mixing with beta-lactamase): the cephalosporin had been consumed
- expulsion of 5-fluorouracil (HPLC trace) ([2]; twenty-one minutes after mixing, 5-fluorouracil elutes at 1.9 minutes): a large amount of compound eluting at 1.9 minutes was observed

— patent EP0382411B1, “Delivery of cytotoxic agents” (ELI LILLY AND COMPANY, priority 1989, dated 1990)
